{"source": "patent US20080160064A1", "about": "“DEVICES AND METHODS FOR […]” (priority 2006, published 2008)", "origin": "cited, not measured here", "target": "hemoglobin (Homo sapiens, UniProt P68871+P69905)", "sequence (P69905 2-142 limits assumed)": "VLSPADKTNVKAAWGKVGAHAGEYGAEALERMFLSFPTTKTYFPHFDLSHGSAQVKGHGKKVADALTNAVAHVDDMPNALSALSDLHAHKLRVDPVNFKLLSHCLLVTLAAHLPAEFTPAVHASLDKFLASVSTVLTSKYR", "sequence (P68871 2-147 limits assumed)": "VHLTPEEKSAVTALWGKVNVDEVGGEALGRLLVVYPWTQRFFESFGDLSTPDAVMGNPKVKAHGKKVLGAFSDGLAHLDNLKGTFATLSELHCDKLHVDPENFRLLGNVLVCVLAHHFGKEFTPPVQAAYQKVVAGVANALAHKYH", "conditions": "higher affinity than oxygen"}
{"smiles": "[C-]#[O+]", "note": "[CO, Carbon monoxide]", "values": [{"measurement": "affinity for hemoglobin relative to oxygen", "value": "~200", "unit": "×"}]}
